Measurements taken from patent publication US9650340B2, “5-fluoro-N-(pyridin-2-yl)pyridin-2-amine derivatives containing a sulfoximine group” (BAYER PHARMA AKTIENGESELLSCHAFT, priority 2012, dated 2017).
Read-outs that look alike come from different tables or passages of the source.

What was measured:
[1] = target: T1, CDK2/CycE (Homo sapiens, UniProt P24941); experiment: CDK2/CycE high ATP kinase assay (TR-FRET, 2 mM ATP); format: biochemical; conditions: Method 2b
T1 construct: GST; purchased ProQinase GmbH (Freiburg, Germany); host or cells: insect cells (Sf9)
Experimental: 2b. CDK2/CycE High ATP Kinase Assay:
CDK2/CycE-inhibitory activity of compounds of the present invention at 2 mM adenosine-tri-phosphate (ATP) was quantified employing the CDK2/CycE TR-FRET (TR-FRET=Time Resolved Fluorescence Energy Transfer) assay as described in the following paragraphs.
Recombinant fusion proteins of GST and human CDK2 and of GST and human CycE, expressed in insect cells (Sf9) and purified by Glutathion-Sepharose affinity chromatography, were purchase from ProQinase GmbH (Freiburg, Germany). As substrate for the kinase reaction biotinylated peptide biotin-Ttds-[…] (C-terminus in amid form) was used which can be purchased e.g. form the company JERINI peptide technologies (Berlin, Germany).
For the assay 50 nl of a 100 fold concentrated solution of the test compound in DMSO was pipetted into a black low volume 384 well microtiter plate (Greiner Bio-One, Frickenhausen, Germany), 2 μl of a solution of CDK2/CycE in aqueous assay buffer [50 mM Tris/HCl pH 8.0, 10 mM MgCl2, 1.0 mM dithiothreitol, 0.1 mM sodium ortho-vanadate, 0.01% (v/v) Nonidet-P40 (Sigma)] were added and the mixture was incubated for 15 min at 22° C. to allow pre-binding of the test compounds to the enzyme before the start of the kinase reaction. Then the kinase reaction was started by the addition of 3 μl of a solution ATP (3.33 mM=>final conc. in the 5 μl assay volume is 2 mM) and substrate (1.25 μM=>final conc. in the 5 μl assay volume is 0.75 μM) in assay buffer and the resulting mixture was incubated for a reaction time of 25 min at 22° C. The concentration of CDK2/CycE was adjusted depending of the activity of the enzyme lot and was chosen appropriate to have the assay in the linear range, typical concentrations were in the range of 15 ng/ml. The reaction was stopped by the addition of 5 μl of a solution of TR-FRET detection reagents (0.2 μM streptavidine-XL665 [Cisbio Bioassays, Codolet, France] and 1 nM anti-RB(pSer807/pSer811)-antibody from BD Pharmingen [#558389] and 1.2 nM LANCE EU-W1024 labeled anti-mouse IgG antibody [Perkin-Elmer, product no. AD0077, as an alternative a Terbium-cryptate-labeled anti-mouse IgG antibody from Cisbio Bioassays can be used]) in an aqueous EDTA-solution (100 mM EDTA, 0.2% (w/v) bovine serum albumin in 100 mM HEPES/NaOH pH 7.0).
The resulting mixture was incubated 1 h at 22° C. to allow the formation of complex between the phosphorylated biotinylated peptide and the detection reagents. Subsequently the amount of phosphorylated substrate was evaluated by measurement of the resonance energy transfer from the Eu-chelate to the streptavidine-XL. Therefore, the fluorescence emissions at 620 nm and 665 nm after excitation at 350 nm were measured in a TR-FRET reader, e.g. a Rubystar (BMG Labtechnologies, Offenburg, Germany) or a Viewlux (Perkin-Elmer). The ratio of the emissions at 665 nm and at 622 nm was taken as the measure for the amount of phosphorylated substrate.

[2] = tested on: MOLM-13 human acute myeloid leukemia cells; experiment: Proliferation assay, MOLM-13 (Cell Titre-Glo); format: cell-based; conditions: MOLM-13, 72-hour exposure, read-out: Inhibition of MOLM-13 cell proliferation IC50
Experimental: Cultivated tumour cells (HeLa, human cervical tumour cells, ATCC CCL-2; NCI-H460, human non-small cell lung carcinoma cells, ATCC HTB-177; A2780, human ovarian carcinoma cells, ECACC #93112519; DU 145, hormone-independent human prostate carcinoma cells, ATCC HTB-81; HeLa-MaTu-ADR, multidrug-resistant human cervical carcinoma cells, EPO-GmbH Berlin; Caco-2, human colorectal carcinoma cells, ATCC HTB-37; B16F10, mouse melanoma cells, ATCC CRL-6475) were plated at a density of 5,000 cells/well (DU145, HeLa-MaTu-ADR), 3,000 cells/well (NCI-H460, HeLa), 2,500 cells/well (A2780), 1,500 cells/well (Caco-2), or 1,000 cells/well (B16F10) in a 96-well multititer plate in 200 μL of their respective growth medium supplemented 10% fetal calf serum. After 24 hours, the cells of one plate (zero-point plate) were stained with crystal violet (see below), while the medium of the other plates was replaced by fresh culture medium (200 μl), to which the test substances were added in various concentrations (0 μM, as well as in the range of 0.001-10 μM; the final concentration of the solvent dimethyl sulfoxide was 0.5%). The cells were incubated for 4 days in the presence of test substances. Cell proliferation was determined by staining the cells with crystal violet: the cells were fixed by adding 20 μl/measuring point of an 11% glutaric aldehyde solution for 15 minutes at room temperature. After three washing cycles of the fixed cells with water, the plates were dried at room temperature. The cells were stained by adding 100 μl/measuring point of a 0.1% crystal violet solution (pH 3.0). After three washing cycles of the stained cells with water, the plates were dried at room temperature. The dye was dissolved by adding 100 μl/measuring point of a 10% acetic acid solution. The extinction was determined by photometry at a wavelength of 595 nm. The change of cell number, in percent, was calculated by normalization of the measured values to the extinction values of the zero-point plate (=0%) and the extinction of the untreated (0 μm) cells (=100%). The IC50 values (inhibitory concentration at 50% of maximal effect) were determined by means of a 4 parameter fit. Non-adherent MOLM-13 human acute myeloid leukemia cells (DSMZ ACC 554) were seeded at a density of 5,000 cells/well in a 96-well multititer plate in 100 μL of growth medium supplemented 10% fetal calf serum. After 24 hours, cell viability of one plate (zero-point plate) was determined with the Cell Titre-Glo Luminescent Cell Viability Assay (Promega), while 50 μL of test compound containing medium was added to the wells of the other plates (final concentrations in the range of 0.001-10 μM and DMSO controls; the final concentration of the solvent dimethyl sulfoxide was 0.5%). Cell viability was assessed after 72-hour exposure with the Cell Titre-Glo Luminescent Cell Viability Assay (Promega).

SMILES | IC50 [1] | IC50 ([2]; Homo sapiens, MOLM-13, 72 h) | IC50 [2]
COc1cc(F)ccc1-c1cc(Nc2cc(CS(C)(=N)=O)cc(C(F)(F)F)n2)ncc1F (single isomer, unassigned; (+)) [Example 22, (+)-5-Fluoro-4-(4-fluoro-2-methoxyphenyl)-N-{4-[(S-methylsulfonimidoyl)methyl]-6-(trifluoromethyl)pyridin-2-yl}pyridin-2-amine] | 233 nM | 10 nM | –
COc1cc(F)ccc1-c1cc(Nc2cc(CS(C)(=N)=O)cc(C)n2)ncc1F (single isomer, unassigned; (+)) [Example 32, (+)-5-Fluoro-4-(4-fluoro-2-methoxyphenyl)-N-{6-methyl-4-[(S-methylsulfonimidoyl)methyl]pyridin-2-yl}pyridin-2-amine] | 1120 nM | 17 nM | –
COc1cc(F)ccc1-c1cc(Nc2cc(CS(C)(=N)=O)ccn2)ncc1F (single isomer, unassigned; (-)) [Example 3, (−)-5-Fluoro-4-(4-fluoro-2-methoxyphenyl)-N-{4-[(S-methylsulfonimidoyl)methyl]pyridin-2-yl}pyridin-2-amine] | 2490 nM | – | 40 nM
COc1cc(F)ccc1-c1cc(Nc2cc(CS(C)(=N)=O)cc(C(F)(F)F)n2)ncc1F (single isomer, unassigned; (-)) [Example 23, (−)-5-Fluoro-4-(4-fluoro-2-methoxyphenyl)-N-{4-[(S-methylsulfonimidoyl)methyl]-6-(trifluoromethyl)pyridin-2-yl}pyridin-2-amine] | 283 nM | – | 10 nM
COc1cc(F)ccc1-c1cc(Nc2cc(CS(C)(=N)=O)cc(C)n2)ncc1F (single isomer, unassigned; (-)) [Example 33, (−)-5-Fluoro-4-(4-fluoro-2-methoxyphenyl)-N-{6-methyl-4-[(S-methylsulfonimidoyl)methyl]pyridin-2-yl}pyridin-2-amine] | 680 nM | – | 23 nM
